Experimental data published in patent US20250154169A1, “COMPOUNDS AND METHODS FOR MODULATING SPLICING” (REMIX THERAPEUTICS INC., priority 2021, published 2025).
Where two headings read alike, the source gives them in different places.

How the values were obtained:
Assay type in all cases: cell-based, human
[1] = tested on: HTT mRNA; assay: Splicing RT-qPCR assay, HTT canonical (CJ) and alternative (AJ) junction mRNA; details: Homo sapiens, A673 or K562 cells, 24 hours compound treatment; for IC50: 24 h, read-out: HTT CJ (IC50, decrease in canonical junction mRNA); for AC50: read-out: HTT AJ (AC50, increase in alternative junction mRNA)
How it was run: (§1)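 A673 or K562 cells were treated 24 h at 37 °C with an 11-point 3-fold compound dilution series (top 10 uM, DMSO ≤0.25%). Lysates went to one-step RT-qPCR measuring canonical (CJ) and alternative-exon (AJ) junction transcripts, normalized to GAPDH, GUSB or PPIA.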

[2] = tested on: SMN2 mRNA; assay: Splicing RT-qPCR gene panel, SMN2 canonical junction (CJ) mRNA; details: Homo sapiens, Tables 4A/4B, read-out: SMN2 (IC50, decrease in CJ mRNA, gene panel)
How it was run: (§2)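 Canonical-junction mRNA levels were quantified by RT-qPCR in lysates, using ΔΔCt against a housekeeping gene (GAPDH, GUSB or PPIA) and DMSO wells, expressed as percentage response. Cells (A673 or K562) had been exposed for 24 h at 37° C. to 11 three-fold compound concentrations up to 10 uM, DMSO ≤0.25%.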

[3] = tested on: HTT mRNA; assay: Splicing RT-qPCR gene panel, HTT canonical junction (CJ) mRNA; details: Homo sapiens, Tables 4A/4B, read-out: HTT (IC50, decrease in CJ mRNA, gene panel)
How it was run: as §2

[4] = tested on: Target C mRNA; assay: Splicing RT-qPCR gene panel, Target C canonical junction (CJ) mRNA; details: Homo sapiens, Tables 4A/4B, read-out: Target C (IC50, decrease in CJ mRNA, gene panel)
How it was run: as §2

[5] = tested on: MYB mRNA; assay: Splicing RT-qPCR assay, MYB canonical (CJ) and alternative (AJ) junction mRNA; details: Homo sapiens; for AC50: read-out: MYB AJ (AC50, increase in alternative junction mRNA)
How it was run: as §1

[6] = 24 h, A673 or K562 cells, 24 hours compound treatment, RT-qPCR
[7] = 24 h, A673 or K562 cells, 24 hours compound treatment, RT-qPCR, read-out: MYB CJ (IC50, decrease in canonical junction mRNA)
[8] = Tables 4A/4B, canonical junction qPCR panel, read-out: MYB (IC50, decrease in CJ mRNA, gene panel)

| SMILES | IC50 [1] [µM] | AC50 [1] [µM] | IC50 [2] [µM] | IC50 [3] [µM] | IC50 [4] [µM] | AC50 [5, 6] [µM] | IC50 [5, 7] [µM] | IC50 [5, 8] [µM] |
| --- | --- | --- | --- | --- | --- | --- | --- | --- |
| CNC1CCN(c2ccc(C(=O)Nc3cn4cc(C)nc4c(OC)n3)c3nn(CCOC)cc23)C1 (centres unmarked) [Compound 418, N-{8-methoxy-2-methylimidazo[1,2-a]pyrazin-6-yl}-2-(2-methoxyethyl)-4-[3-(methylamino)pyrrolidin-1-yl]indazole-7-carboxamide] | > 10 | > 10 | < 0.1 | > 10 | > 10 | 1 to 10 | 0.1 to 1 | 0.1 to 1 |
| CNC1CCN(c2ccc(C(=O)Nc3cn4cc(C)nc4c(N(C)C)n3)c3nn(C)cc23)C1 (centres unmarked) [Compound 419, N-[8-(dimethylamino)-2-methylimidazo[1,2-a]pyrazin-6-yl]-2-methyl-4-[3-(methylamino)pyrrolidin-1-yl]indazole-7-carboxamide] | > 10 | > 10 | > 10 | > 10 | > 10 | > 10 | > 10 | > 10 |
| CCOc1nc(NC(=O)c2ccc(N3CCC(NC)C3)c3cn(C)nc23)cn2cc(C)nc12 (centres unmarked) [Compound 420, N-{8-ethoxy-2-methylimidazo[1,2-a]pyrazin-6-yl}-2-methyl-4-[3-(methylamino)pyrrolidin-1-yl]indazole-7-carboxamide] | > 10 | > 10 | < 0.1 | > 10 | > 10 | 0.1 to 1 | 0.1 to 1 | 0.1 to 1 |
| Cc1cc2nc(NC(=O)c3ccc(N4CCNCC4)c4cn(C)nc34)cc(C)n2n1 [Compound 421, N-{2,7-dimethylpyrazolo[1,5-a]pyrimidin-5-yl}-2-methyl-4-(piperazin-1-yl) indazole-7-carboxamide] | > 10 | > 10 | > 10 | > 10 | > 10 | > 10 | > 10 | > 10 |
| CCn1cc2c(N3CCC(C)(NC)CC3)ccc(C(=O)Nc3cc(F)c4nc(C)cn4c3)c2n1 [Compound 423, 2-ethyl-N-{8-fluoro-2-methylimidazo[1,2-a]pyridin-6-yl}-4-[4-methyl-4-(methylamino)piperidin-1-yl]indazole-7-carboxamide] | 0.1 to 1 | 0.1 to 1 | < 0.1 | 0.1 to 1 | 1 to 10 | < 0.1 | < 0.1 | < 0.1 |
| COC1CC(n2cc3c(N4CCNCC4)ccc(C(=O)Nc4cc(F)c5nc(C)cn5c4)c3n2)C1 (centres unmarked) [Compound 424] | > 10 | > 10 | 1 to 10 | > 10 | > 10 | > 10 | > 10 | > 10 |
| CN[C@@H]1CCN(c2ccc(C(=O)Nc3cn4cc(C)nc4c(N(C)C)n3)c3nn(C)cc23)C1 [Compound 425] | > 10 | > 10 | > 10 | > 10 | > 10 | > 10 | > 10 | > 10 |
| CN[C@H]1CCN(c2ccc(C(=O)Nc3cn4cc(C)nc4c(N(C)C)n3)c3nn(C)cc23)C1 [Compound 426] | > 10 | > 10 | > 10 | > 10 | > 10 | > 10 | > 10 | > 10 |
| Cc1cn2cc(NC(=O)c3ccc(N4CCNCC4)c4nn(C)nc34)cc(F)c2n1 [Compound 427, N-{8-fluoro-2-methylimidazo[1,2-a]pyridin-6-yl}-2-methyl-7-(piperazin-1-yl)-1,2,3-benzotriazole-4-carboxamide] | 0.1 to 1 | 0.1 to 1 | < 0.1 | 0.1 to 1 | 1 to 10 | 0.1 to 1 | 0.1 to 1 | 0.1 to 1 |
| COc1c(NC(=O)c2ccc(N3CCNCC3)c3oc(C)nc23)cn2cc(C)nc2c1F [Compound 428, N-{8-fluoro-7-methoxy-2-methylimidazo[1,2-a]pyridin-6-yl}-2-methyl-7-(piperazin-1-yl)-1,3-benzoxazole-4-carboxamide] | < 0.1 | < 0.1 | < 0.1 | < 0.1 | 0.1 to 1 | < 0.1 | < 0.1 | < 0.1 |
